{"source": "paper PMC7824033", "about": "“Flavones, Flavonols, and Glycosylated Derivatives—Impact on Candida albicans Growth and Virulence, Expression of CDR1 and ERG11, Cytotoxicity” (Pharmaceuticals, 2020)", "key": {"C. albicans 475/15 [1]": {"system": "C. albicans 475/15", "test": "Microdilution assay, MIC and MFC", "format": "cell-based", "settings": "Candida albicans, C. albicans 475/15, mean ± SD of three replicates", "source_text": "(§1) C. albicans was isolated from oral cavities of patients at ENT Clinic, Clinical Hospital Centre Zvezdara, Belgrade, Serbia after obtaining informed written consent and identified by using CHROMagar plates (Biomerieux, Craponne, France). Strains were maintained on Sabouraud Dextrose Agar (Merck, Darmstadt, Germany) and are deposited at the Mycological Laboratory, Department of Plant Physiology, Institute for Biological Research “Siniša Stanković”, National Institute of Republic of Serbia, University of Belgrade. The collection of samples was approved by the Ethical Committee (Office for Human Research Protection, Zvezdara University Medical Center, Belgrade, Serbia, document issued 26 October 2016).\n(§2) Microdilution assay with some modification was used for determination of minimum inhibitory (MIC) and minimum fungicidal concentrations (MFC). Yeast cultures were adjusted to 1.0 × 10^5 CFU/per well with sterile PBS (Phosphate buffered saline, pH 7.4). The 96-well microtiter plates with serially diluted flavonoids (concentration range 0.3–75 µg/mL) in liquid broth were incubated at 37 °C for 24 h. After incubation, MIC and MFC were determined. The lowest concentrations that were not inducing microscopically observed growth were considered as MIC. For microscopic determination of growth, we used inverted microscope Nikon Eclipse TS2 (Amsterdam, Netherland) and examined the fungal growth in the wells of 96-well microtiter plates compared to the control (untreated yeast cells). MFC values were determined as concentrations without visible growth after serial sub-cultivation of 10 µL of samples at 37 °C for 24 h. Ketoconazole and amphotericin B (SigmaAldrich, Darmstadt, Germany) were used as an antifungal control. The tested flavonoids were obtained from Extrasynthese, Rhone, France."}, "C. albicans 13/15": {"system": "C. albicans 13/15", "test": "Microdilution assay, MIC and MFC", "format": "cell-based", "settings": "Candida albicans, C. albicans 13/15, mean ± SD of three replicates", "source_text": "as §1, §2"}, "C. albicans 527/14": {"system": "C. albicans 527/14", "test": "Microdilution assay, MIC and MFC", "format": "cell-based", "settings": "Candida albicans, C. albicans 527/14, mean ± SD of three replicates", "source_text": "as §1, §2"}, "C. albicans 10/15": {"system": "C. albicans 10/15", "test": "Microdilution assay, MIC and MFC", "format": "cell-based", "settings": "Candida albicans, C. albicans 10/15, mean ± SD of three replicates", "source_text": "as §1, §2"}, "C. albicans biofilm": {"system": "C. albicans biofilm", "settings": "cited from earlier work"}, "in vitro": {"test": "in vitro", "settings": "pig", "experimental": "Preparation of PLP2 cell line was performed with freshly harvested porcine liver supplied from a local slaughter house. Tissues from the liver were washed in Hank’s balanced salt solution comprising 100 U/mL penicillin and 100 μg/mL streptomycin and split into 1 × 1 mm^3 explants. Some of the prepared explants were set in 25 cm^2 tissue flasks in Dulbecco’s modified Eagle’s medium (DMEM) with 10% fetal bovine serum (FBS), 2 mM nonessential amino acids, 100 U/mL penicillin, and […] streptomycin, and incubation was conducted at 37 °C with 5% CO2 in a humidified atmosphere. The fresh medium was added every 2 days. Cultivation of the cells was further conducted with direct observation by the phase contrast microscope every 2–3 days. Before confluence was achieved, cells were subcultured and seeded in 96-well plates at a density of 1.0 × 10^4 cells per well and cultivated in DMEM supplemented with 10% FBS, 100 U/mL penicillin, and 100 μg/mL streptomycin. Previously described Sulforhodamine B assay was used for the determination of cytotoxicity. The obtained results were defined as GI50 values corresponding to the compound concentration that inhibits 50% of the net cell growth. Ellipticine was used as a positive control."}, "C. albicans 475/15 [2]": {"system": "C. albicans 475/15", "set-up": "method as in PMID 28827996", "settings": "previously published; cited from earlier work"}, "CDR1": {"system": "CDR1", "test": "Expression of CDR1 (qPCR)", "format": "cell-based, Candida albicans", "settings": "treatment with MIC", "experimental": "(§3) Total RNA was isolated as described by Sanglard et al. with some modifications. C. albicans 475/15 was grown with agitation at 30 °C in YEPD until OD540 = 0.4. C. albicans cells were incubated with MIC of compounds in YEPD at 30 °C with agitation for 30 min. Cells were centrifuged (4600 rpm, 4 °C for 5 min (Rotanata 460 R, Hettich, Tuttlingen, Germany)) and the pellet was resuspended in 300 µL of RNA buffer (0.1 M Tris-HCl pH 7.5, 0.1M LiCl, 10mM EDTA, 0.5% SDS). The pellet was homogenized with 200 µL of DEPC treated glass beads and 300 µL of Phenol:Chloroform:Isoamyl Alcohol (Sigma-Aldrich, Darmstadt, Germany) in Precellys Evolution tissue homogenizer (Bertion instruments, Montigny-le-Bretonneux, France) at 4500 rpm for 5 s. After centrifugation (14,000 rpm, 4 °C, 1 min (Universal 32 R, Hettich, Tuttlingen, Germany)) 200 µL of supernatant was vortexed with 250 µL of Phenol:Chloroform:Isoamyl Alcohol for 10 s. Samples were centrifuged (14,000 rpm, 4 °C, 1 min) and 200 µL of supernatant was transferred to new tubes, 400 µL of ice-cold 99% ethanol was added to each tube, and they were kept on dry ice for 10 min. Samples were centrifuged (14,000 rpm, 4 °C, 2 min), pellet was washed with ethanol (70%), left to dry at room temperature, after which it was dissolved in 50 µL of DEPC treated water. Nanodrop (ND-1000, Witec AG, Sursee, Switzerland) was used for determination of concentration and purity of samples. RNA was stored at −80°C.\n(§4) Amount of 10 µg RNA was incubated with 5 µL of DNAse buffer and 1 µL of DNAse at 37 °C for 30 min (DNA-free™ DNA Removal Kit, Ambion, Bleiswijk, Netherlands). After addition of DNAse inactivation reagent tubes were kept at room temperature with occasional vortexing for 5 min. Samples were centrifuged (14,000 rpm, 4°C, 2 min) and the concentration and quality of supernatant were analyzed on Nanodrop (ND-1000, Witec AG, Sursee, Switzerland).\n(§5) Synthesis of cDNA was done with a Transcriptor High Fidelity cDNA synthesis kit (Roche). RNA (1 µg) was incubated with 60 µM random hexamer primers, in 11.4 µL of total sample volume, at 65 °C for 10 min. The mixture of Transcriptase reaction buffer 5×, Deoxynucleotide mix, DTT, Protector RNAse inhibitor, and Transcriptor High Fidelity Reverse Transcriptase was added to each tube according to manufacturer instructions. Synthesis of cDNA was completed by incubating the mixture at 50 °C for 30 min and 85 °C for 5 min (Peqstar thermocycler, Peqlab, Erlangen, Germany).\n(§6) Wells of MicroAmp Fast 96-Well Reaction plate ((0.1 mL), Applied biosystems, Waltham, MA, USA) were incubated with 10 µL of mixture (cDNA, 2× MasterMix, primers, probe (Table 3), and water). Analysis was performed in StepOnePlus Real Time PCR system with relative standard curve method. Expression levels of CDR1 and ERG11 were normalized to expression of ACT1."}, "[3]": {"system": "C. albicans 475/15 hyphal growth", "test": "Anti-hyphal forming activity", "format": "cell-based, Candida albicans", "settings": "MIC, 4 h, YPD + 10% FBS", "experimental": "C. albicans 475/15 cells were incubated with MIC of tested compounds in YPD + 10% FBS, at 37 °C, for 4 h. Cells were examined under microscope (Nikon Eclipse TS2, Amsterdam, Netherland) and number of cells, growing in the yeast or hyphal and germ tube formations, was determined. Assay was performed in triplicate and percentage of hyphae was determined."}, "[4]": {"system": "HUVE (human umbilical vein endothelial) cells", "settings": "read-out: LC50; cited from earlier work"}, "S. aureus efflux": {"system": "S. aureus efflux", "set-up": "method as in PMID 25961825", "settings": "bacterial efflux pumps; cited from earlier work"}, "[5]": {"system": "C. albicans 475/15 biofilm formation", "test": "Inhibition of biofilm formation (crystal violet)", "format": "cell-based, Candida albicans", "settings": "concentration not given", "experimental": "Potential of selected compounds to interfere with C. albicans 475/15 biofilm formation was investigated as previously described. Briefly, C. albicans 475/15 was incubated with serial dilution of the compounds (MIC and subMICs) in YPD medium, in 96-well microtiter plates with adhesive bottom (Sarstedt, Nümbrecht, Germany), at 37 °C for 24 h. After incubation, wells were washed twice with sterile PBS and methanol was added into each well. After fixation, methanol was discarded, and the plate was air dried. Formed biofilms were stained with 0.1% crystal violet (Bio-Merieux, Craponne, France) for 30 min. The plate was gently washed under the tap of water and air dried. The stain bound to the remaining biofilms was dissolved with ethanol (96%, Zorka, Šabac, Serbia). Absorbance was read on a Multiskan™ FC Microplate Photometer, Thermo Scientific™. The percentage of inhibition of biofilm formation was calculated by the formula:[(A620control − A620sample)/A620control] × 100"}, "ERG11": {"system": "ERG11", "test": "Expression of ERG11 (qPCR)", "format": "cell-based, Candida albicans", "settings": "treatment with MIC", "experimental": "as §3, §4, §5, §6"}}, "note": "Entries after “also recorded” stand apart in the source; their conditions may differ. Like-named read-outs stand apart in the source and are kept apart here.", "data": [{"smiles": "C[C@@H]1[C@H](O)[C@@H](C)/C=C/C=C/C=C/C=C/C=C/C=C/C=C/[C@H](O[C@@H]2O[C@H](C)[C@@H](O)[C@H](N)[C@@H]2O)C[C@@H]2O[C@](O)(C[C@@H](O)C[C@@H](O)[C@H](O)CC[C@@H](O)C[C@@H](O)CC(=O)O[C@H]1C)C[C@H](O)[C@H]2C(=O)O", "note": "[Amphotericin B, amphotericin B, reference compound]", "values": [{"measurement": "MFC", "setting": "C. albicans 475/15 [1]; read-out: MFC", "result": "1.25 ± 0.002", "unit": "µg/mL"}, {"measurement": "MIC", "setting": "C. albicans 475/15 [1]; read-out: MIC", "result": "0.63 ± 0.001", "unit": "µg/mL"}, {"measurement": "MFC", "setting": "C. albicans 13/15; read-out: MFC", "result": "1.25 ± 0.002", "unit": "µg/mL"}, {"measurement": "MIC", "setting": "C. albicans 13/15; read-out: MIC", "result": "0.63 ± 0.001", "unit": "µg/mL"}, {"measurement": "MFC", "setting": "C. albicans 527/14; read-out: MFC", "result": "1.25 ± 0.002", "unit": "µg/mL"}, {"measurement": "MIC", "setting": "C. albicans 527/14; read-out: MIC", "result": "0.63 ± 0.001", "unit": "µg/mL"}, {"measurement": "MFC", "setting": "C. albicans 10/15; read-out: MFC", "result": "1.25 ± 0.002", "unit": "µg/mL"}, {"measurement": "MIC", "setting": "C. albicans 10/15; read-out: MIC", "result": "0.63 ± 0.001", "unit": "µg/mL"}]}, {"smiles": "O=c1cc(-c2ccc(O)cc2)oc2cc(O)cc(O)c12", "note": "[Apigenin, apigenin]", "values": [{"measurement": "antibiofilm effect", "setting": "C. albicans biofilm; 125 µg/mL, oral and reference isolates SC5314 and 3153A", "result": "did not show any antibiofilm effect"}, {"measurement": "concentration necessary for biofilm reduction", "setting": "C. albicans biofilm; C. albicans ATCC 90028", "result": 5, "unit": "µg/mL"}, {"measurement": "GI50", "setting": "in vitro", "result": "> 400", "unit": "µg/mL"}, {"measurement": "MIC", "setting": "C. albicans 475/15 [2]", "result": 100, "unit": "µg/mL"}, {"measurement": "CDR1 expression level, log2FC", "setting": "CDR1; 30 min, normalized to ACT1", "result": "< −1", "unit": "log2FC"}, {"measurement": "impact on CDR1 expression", "setting": "CDR1; listed as apigenin", "result": "downregulated; also recorded: inhibitory impact; also recorded: lowering CDR1 expression"}, {"measurement": "reduction of hyphal growth (words)", "setting": "[3]", "result": "lowest number of cells growing in the hyphal form"}, {"measurement": "CC50", "setting": "[4]", "result": 110, "unit": "µM"}, {"measurement": "concentration that inhibited bacterial efflux pumps", "setting": "S. aureus efflux", "result": 38, "unit": "µg/mL"}, {"measurement": "reduction of biofilm formation", "setting": "[5]", "result": "more than 50%"}, {"measurement": "impact on ERG11 expression (words)", "setting": "ERG11", "result": "negative impact"}, {"measurement": "impact on ERG11 expression (words)", "setting": "ERG11; listed as apigenin", "result": "lower expression levels; also recorded: lowering ERG11 expression"}]}, {"smiles": "Cc1c2ccncc2c(C)c2c1[nH]c1ccccc12", "note": "[Ellipticin, Ellipticine, reference compound]", "values": [{"measurement": "GI50", "setting": "in vitro", "result": "3.22 ± 0.2", "unit": "µg/mL"}]}]}
